Experimental data reported in patent publication US6476056B2, “Heterocycle substituted aryloxyaniline derivatives and their use as MDR ligands” (Taisho Pharmaceutical Co., Ltd., priority 1997, dated 2002).
pIC50: −log10 of the molar value. Counter-ions that a name gives are not always drawn.

target: T1, MDR (Rattus norvegicus, UniProt P16257); test: MDR receptor binding assay ([3H]PK11195 displacement); conditions: 50% inhibition of [3H]PK11195 (2 nM) binding; crude mitochondria fraction from rat cerebral cortex; 4° C., 90 minutes
T1 construct: Crude mitochondria fractions prepared from rat cerebral cortex were used as a receptor sample; from tissue; host or cells: rat cerebral cortex, crude mitochondria fraction
Description: Experiment [MDR Receptor Binding Assay]
Crude mitochondria fractions prepared from rat cerebral cortex were used as a receptor sample, and [^3H]PK11195 was used as a [^3H]-labeled ligand.
A binding assay using the [^3H]-labeled ligand was carried out according to the following method as described in Journal of Pharmacology and Experimental Therapeutics, 262, 971(1992).
Preparation of Receptor Sample: Rat cerebral cortex was homogenized using a Teflon-coated homogenizer in a 10 mM HEPES buffer (pH 7.4) containing 0.32 M sucrose in ten volumes of the wet weight. The homogenate was centrifuged at 900×g for 10 minutes, and the resulting supernatant was centrifuged at 9,000×g for 10 minutes. The precipitate was suspended in a HEPES buffer to give a protein concentration of 1 mg/ml, and centrifuged at 12,000×g for 10 minutes. The resulting precipitate was suspended in a 50 mM HEPES buffer (pH 7.4) to give a crude mitochondria fraction.
MDR Binding Assay: Mitochondria sample (1.0 mg protein/ml), [^3H]PK11195 (2 nM) and the test drug were reacted at 4° C. for 90 minutes. After completion of the reaction, the reaction mixture was filtered with suction through a glass filter (GF/B) treated with 0.3% polyethyleneimine, and the radioactivity on the filter was measured by a liquid scintillation spectrometer.
The binding at the reaction in the presence of 10 μM PK11195 was defined as non-specific binding of [3H]PK11195, and the difference between total binding and non-specific binding was defined as specific binding.

Compound | pIC50
COc1cccc(CN(C(C)=O)c2ccccc2Oc2ccccc2)c1 [Compound 001] | 8.86
COc1ccccc1N(C(C)=O)c1ccccc1Oc1ccccc1 [Compound 013, N-Acetyl-N-(2-methoxyphenyl)-2-phenoxyaniline] | 8.01
COc1ccccc1C(C)N(C(C)=O)c1ccccc1Oc1ccccc1 (stereo not drawn) [Compound 014] | 8.66
CC(=O)N(Cc1ccccc1O)c1ccccc1Oc1ccccc1 [Compound 027, N-acetyl-N-(2-hydroxybenzyl)-2-phenoxyaniline] | 8.49
CC(=O)Oc1ccccc1CN(C(C)=O)c1ccccc1Oc1ccccc1 [Compound 028, N-acetyl-N-(2-acetyloxybenzyl)-2-phenoxyaniline] | 8.49
CC(=O)N(Cc1cccc(Cl)c1)c1ccccc1Oc1ccccc1 [Compound 030] | 8.71
CC(=O)N(Cc1ccc(Cl)cc1)c1ccccc1Oc1ccccc1 [Compound 031] | 8.91
CC(=O)N(Cc1ccccc1F)c1ccccc1Oc1ccccc1 [Compound 032] | 8.17
CC(=O)N(Cc1ccccc1Br)c1ccccc1Oc1ccccc1 [Compound 033] | 8.45
CC(=O)N(Cc1ccccc1C)c1ccccc1Oc1ccccc1 [Compound 049] | 8.37
CC(=O)N(Cc1ccccc1[N+](=O)[O-])c1ccccc1Oc1ccccc1 [Compound 052, N-acetyl-N-(2-nitrobenzyl)-2-phenoxyaniline] | 8.33
CC(=O)N(Cc1ccccc1N1CCCC1)c1ccccc1Oc1ccccc1 [Compound 054, N-Acetyl-N-(2-pyrrolidinobenzyl)-2-phenoxyaniline monohydrochloride] | 8.90
CC(=O)N(Cc1ccc(N(C)C)cc1)c1ccccc1Oc1ccccc1 [Compound 055] | 8.74
CC(=O)N(Cc1ccccc1)c1ccccc1Oc1ccccc1 [Compound 056] | 8.53
COc1ccncc1CN(C(C)=O)c1ccccc1Oc1ccccc1 [Compound 062] | 8.98
CCCOc1ccccc1CN(C(=O)CC)c1ccc(Cl)cc1Oc1ccccc1 [Compound 067] | 8.97
CCCC(=O)N(Cc1ccccc1OC)c1ccccc1Oc1ccccc1 [Compound 071] | 8.90
COc1ccccc1CN(C(=O)C(C)C)c1ccccc1Oc1ccccc1 [Compound 072] | 8.45
CCCCC(=O)N(Cc1ccccc1OC)c1ccccc1Oc1ccccc1 [Compound 073] | 8.82
CCCCCC(=O)N(Cc1ccccc1OC)c1ccccc1Oc1ccccc1 [Compound 075] | 8.74
COc1ccccc1CN(C(=O)C1CC1)c1ccccc1Oc1ccccc1 [Compound 076] | 9.02
COc1ccccc1CN(C(=O)C1CCC1)c1ccccc1Oc1ccccc1 [Compound 077] | 8.25
COc1ccccc1CN(C(=O)c1ccccc1)c1ccccc1Oc1ccccc1 [Compound 079] | 8.33
COc1ccccc1CN(C(=O)C(F)(F)F)c1ccccc1Oc1ccccc1 [Compound 080] | 8.33
COc1ccccc1CN(C(=O)COC(C)=O)c1ccccc1Oc1ccccc1 [Compound 082, N-acetoxyacetyl-N-(2-methoxybenzyl)-2-phenoxyaniline] | 8.05
COc1ccccc1CN(C(=O)CO)c1ccccc1Oc1ccccc1 [Compound 085, N-Hydroxyacetyl-N-(2-methoxybenzyl)-2-phenoxyaniline] | 8.41

Continued by rising pIC50, values first:

pIC50 | Compound
9.02 | COc1cccnc1CN(C(C)=O)c1ccccc1Oc1ccccc1 [Compound 060]
9.03 | CCOc1ccccc1CN(C(=O)CC)c1ccc(Cl)cc1Oc1ccccc1 [Compound 066]
9.06 | CC(=O)N(Cc1ccccc1OC(C)C)c1ccc(Cl)cc1Oc1ccccc1 [Compound 008]
9.10 | CCOc1ccccc1CN(C(C)=O)c1ccc(Cl)cc1Oc1ccccc1 [Compound 004]
9.14 | COc1ccc(CN(C(C)=O)c2ccccc2Oc2ccccc2)c(OC)c1 [Compound 016, N-Acetyl-N-(2,4-dimethoxybenzyl)-2-phenoxyaniline]
9.17 | CCCOc1ccccc1CN(C(C)=O)c1ccc(Cl)cc1Oc1ccccc1 [Compound 006]
9.18 | COc1ccc(CN(C(C)=O)c2ccccc2Oc2ccccc2)cc1 [Compound 002]
9.30 | COc1ncccc1CN(C(C)=O)c1ccccc1Oc1ccccc1 [Compound 061]
9.31 | CC(=O)N(Cc1ccccc1Cl)c1ccccc1Oc1ccccc1 [Compound 029, N-Acetyl-N-(2-chlorobenzyl)-2-phenoxyaniline]
9.34 | COc1ccccc1CCN(C(C)=O)c1ccccc1Oc1ccccc1 [Compound 012, N-Acetyl-N-[2-(2-methoxyphenyl)ethyl]-2-phenoxyaniline]
9.37 | COc1ccc(OC)c(CN(C(C)=O)c2cc(Cl)ccc2Oc2ccccc2)c1 [Compound 023]
9.42 | CC(=O)N(Cc1ccccc1C=O)c1ccccc1Oc1ccccc1 [Compound 046, N-acetyl-N-(2-formylbenzyl)-2-phenoxyaniline]
9.46 | COc1ccccc1CN(C(=O)CCl)c1ccccc1Oc1ccccc1 [Compound 081, N-chloroacetyl-N-(2-methoxybenzyl)-2-phenoxyaniline]
9.51 | COc1ccc(OC)c(CN(C(C)=O)c2cc(F)ccc2Oc2ccccc2)c1 [Compound 021]
9.55 | COc1cccc(CN(C(C)=O)c2ccccc2Oc2ccccc2)c1OC [Compound 015]
9.58 | CC(=O)c1ccccc1CN(C(C)=O)c1ccccc1Oc1ccccc1 [Compound 047, N-Acetyl-N-(2-acetylbenzyl)-2-phenoxyaniline]

pIC50 | Compound
9.59 | COc1cc(CN(C(C)=O)c2ccccc2Oc2ccccc2)cc(OC)c1 [Compound 025]
9.67 | CCCc1ccccc1CN(C(C)=O)c1ccccc1Oc1ccccc1 [Compound 050, N-Acetyl-N-(2-propylbenzyl)-2-phenoxyaniline]
9.71 | COc1ccc(OC)c(CN(C(C)=O)c2cc(C)ccc2Oc2ccccc2)c1 [Compound 019]
9.71 | C=Cc1ccccc1CN(C(C)=O)c1ccccc1Oc1ccccc1 [Compound 051]
9.75 | COc1ccc(OC)c(CN(C(C)=O)c2ccc(Cl)cc2Oc2ccccc2)c1 [Compound 022]
9.75 | CSc1ccccc1CN(C(C)=O)c1ccccc1Oc1ccccc1 [Compound 034]
9.79 | CC(=O)N(Cc1ccccc1OCCC(C)C)c1ccccc1Oc1ccccc1 [Compound 011]
9.83 | CCCCCOc1ccccc1CN(C(C)=O)c1ccccc1Oc1ccccc1 [Compound 010]
9.91 | CCOc1ccccc1CN(C(C)=O)c1ccccc1Oc1ccccc1 [Compound 003]
9.93 | CCCOc1ccccc1CN(C(C)=O)c1ccccc1Oc1ccccc1 [Compound 005]
9.95 | CC(=O)N(Cc1ccccc1OCC(C)C)c1ccccc1Oc1ccccc1 [Compound 009]
10.01 | CC(=O)N(Cc1ccccc1OC(C)C)c1ccccc1Oc1ccccc1 [Compound 007, N-Acetyl-N-(2-isopropoxybenzyl)-2-phenoxyaniline]
10.03 | CCC(=O)N(Cc1ccccc1OC)c1ccccc1Oc1ccccc1 [Compound 064]
10.07 | COc1ccc(OC)c(CN(C(C)=O)c2ccccc2Oc2ccccc2)c1 [Compound 017]
10.19 | COC(=O)c1ccccc1CN(C(C)=O)c1ccccc1Oc1ccccc1 [Compound 040, N-acetyl-N-(2-methoxycarbonylbenzyl)-2-phenoxyaniline]
